Laboratory results taken from ChEMBL document CHEMBL4321834, “Glechomanamides A-C, Germacrane Sesquiterpenoids with an Unusual Δ8-7,12-Lactam Moiety from Salvia scapiformis and Their Antiangiogenic Activity” (J Nat Prod, 2019).
The source made the active and inactive calls.

Key:
HUVEC [1] = test: Decrease in D-glucose-induced BMP4 mRNA expression in HUVEC at 500 uM incubated for 48 hrs in presence of […] by real time-PCR analysis; type: functional, cell-based; conditions: Homo sapiens
HUVEC [2] = test: Decrease in D-glucose-induced ANGPT2 mRNA expression in HUVEC at 500 uM incubated for 48 hrs in presence of […] by real time-PCR analysis; type: functional, cell-based; conditions: Homo sapiens
HUVEC [3] = test: Decrease in HK2 expression in HUVEC at 1 to 100 uM preincubated for 30 mins followed by incubation with VEGF for 20 mins by Western blot analysis; type: functional, cell-based; conditions: Homo sapiens
HUVEC [4] = test: Decrease in total VEGF expression in HUVEC at 1 to 100 uM preincubated for 30 mins followed by incubation with VEGF for 20 mins by Western blot analysis; type: functional, cell-based; conditions: Homo sapiens
HUVEC [5] = test: Decrease in BMP4 expression in HUVEC at 1 to 100 uM preincubated for 30 mins followed by incubation with VEGF for 20 mins by Western blot analysis; type: functional, cell-based; conditions: Homo sapiens
HUVEC [6] = test: Decrease in D-glucose-induced ANGPT2 mRNA expression in HUVEC at 10 uM incubated for 48 hrs in presence of […] by real time-PCR analysis; type: functional, cell-based; conditions: Homo sapiens
[7] = biological target: Vascular endothelial growth factor receptor 2 (Homo sapiens) (UniProt P35968); test: Inhibition of VEGF-induced VEGFR2 phosphorylation in HUVEC at 1 to 100 uM preincubated for 30 mins followed by stimulation with VEGF for 20 mins by Western blot analysis; type: cell-based
Vascular endothelial growth factor receptor 2 (Homo sapiens), sequence (P35968 whole entry): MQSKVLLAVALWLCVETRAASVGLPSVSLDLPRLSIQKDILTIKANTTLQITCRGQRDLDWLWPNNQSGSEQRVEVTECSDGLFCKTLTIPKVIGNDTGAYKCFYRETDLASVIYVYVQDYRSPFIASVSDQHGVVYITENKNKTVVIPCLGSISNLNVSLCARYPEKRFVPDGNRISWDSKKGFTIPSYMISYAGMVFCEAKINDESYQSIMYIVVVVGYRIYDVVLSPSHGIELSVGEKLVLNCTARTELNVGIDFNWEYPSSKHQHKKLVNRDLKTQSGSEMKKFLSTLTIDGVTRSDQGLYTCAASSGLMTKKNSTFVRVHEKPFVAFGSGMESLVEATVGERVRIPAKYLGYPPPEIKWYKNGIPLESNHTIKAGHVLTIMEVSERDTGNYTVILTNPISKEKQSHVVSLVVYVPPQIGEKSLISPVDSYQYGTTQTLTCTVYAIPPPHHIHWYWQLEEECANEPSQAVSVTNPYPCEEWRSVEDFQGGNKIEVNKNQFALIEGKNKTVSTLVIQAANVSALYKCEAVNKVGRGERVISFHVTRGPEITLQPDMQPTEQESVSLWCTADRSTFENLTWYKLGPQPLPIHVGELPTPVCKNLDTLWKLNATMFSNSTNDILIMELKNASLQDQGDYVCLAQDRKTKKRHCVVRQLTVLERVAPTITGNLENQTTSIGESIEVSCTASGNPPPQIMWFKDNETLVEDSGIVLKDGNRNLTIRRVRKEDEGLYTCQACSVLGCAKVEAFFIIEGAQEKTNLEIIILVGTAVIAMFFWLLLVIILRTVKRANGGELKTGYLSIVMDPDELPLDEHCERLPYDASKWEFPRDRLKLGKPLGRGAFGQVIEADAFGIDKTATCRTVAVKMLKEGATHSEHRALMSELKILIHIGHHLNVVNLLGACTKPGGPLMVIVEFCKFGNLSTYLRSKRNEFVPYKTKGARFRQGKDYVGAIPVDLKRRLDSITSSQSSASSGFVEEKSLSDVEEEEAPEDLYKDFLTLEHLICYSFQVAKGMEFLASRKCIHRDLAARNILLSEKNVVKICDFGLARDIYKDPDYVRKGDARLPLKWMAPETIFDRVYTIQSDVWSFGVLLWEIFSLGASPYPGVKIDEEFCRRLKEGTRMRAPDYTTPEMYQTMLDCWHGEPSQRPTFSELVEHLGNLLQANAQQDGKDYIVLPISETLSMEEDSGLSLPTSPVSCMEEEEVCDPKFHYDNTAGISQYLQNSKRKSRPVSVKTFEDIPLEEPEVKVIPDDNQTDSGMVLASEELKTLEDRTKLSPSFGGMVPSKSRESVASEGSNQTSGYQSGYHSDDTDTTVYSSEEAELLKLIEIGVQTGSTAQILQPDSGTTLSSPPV

HUVEC [8] = test: Decrease in GLUT1 expression in HUVEC at 1 to 100 uM preincubated for 30 mins followed by incubation with VEGF for 20 mins by Western blot analysis; type: functional, cell-based; conditions: Homo sapiens
[9] = biological target: Vascular endothelial growth factor receptor 2 (Homo sapiens) (UniProt P35968); test: Inhibition of VEGFR2 in HUVEC assessed as inhibition of VEGF-induced tube formation at 80 uM incubated for 8 hrs by inverted microscopic method; type: cell-based
[10] = biological target: Vascular endothelial growth factor receptor 2 (Homo sapiens) (UniProt P35968); test: Inhibition of VEGFR2 in HUVEC assessed as inhibition of VEGF-induced tube formation incubated for 8 hrs by inverted microscopic method; type: cell-based
HUVEC [11] = test: Decrease in D-glucose-induced BMP4 mRNA expression in HUVEC at 10 uM incubated for 48 hrs in presence of […] by real time-PCR analysis; type: functional, cell-based; conditions: Homo sapiens

Measured: inhibition

CN(C)C(=N)NC(=N)N
active: HUVEC [1] | HUVEC [2]

C/C=C(\C)C(=O)O[C@@H]1C2=C(C)C(=O)N[C@]2(O)C[C@@]2(C)O[C@@H]2CC[C@@]2(C)O[C@H]12
active: HUVEC [3] | HUVEC [4] | HUVEC [5] | HUVEC [6] | [7] | HUVEC [8] | [9] | [10] Dose-dependent effect | HUVEC [11]
